Laboratory results from ChEMBL document CHEMBL1139598, “A discriminant model constructed by the support vector machine method for HERG potassium channel inhibitors” (Bioorg Med Chem Lett, 2005).

Target: Voltage-gated inwardly rectifying potassium channel KCNH2 (Homo sapiens, UniProt Q12809)
Test: Inhibitory concentration against potassium channel HERG

Chain of Voltage-gated inwardly rectifying potassium channel KCNH2 (Q12809 whole entry): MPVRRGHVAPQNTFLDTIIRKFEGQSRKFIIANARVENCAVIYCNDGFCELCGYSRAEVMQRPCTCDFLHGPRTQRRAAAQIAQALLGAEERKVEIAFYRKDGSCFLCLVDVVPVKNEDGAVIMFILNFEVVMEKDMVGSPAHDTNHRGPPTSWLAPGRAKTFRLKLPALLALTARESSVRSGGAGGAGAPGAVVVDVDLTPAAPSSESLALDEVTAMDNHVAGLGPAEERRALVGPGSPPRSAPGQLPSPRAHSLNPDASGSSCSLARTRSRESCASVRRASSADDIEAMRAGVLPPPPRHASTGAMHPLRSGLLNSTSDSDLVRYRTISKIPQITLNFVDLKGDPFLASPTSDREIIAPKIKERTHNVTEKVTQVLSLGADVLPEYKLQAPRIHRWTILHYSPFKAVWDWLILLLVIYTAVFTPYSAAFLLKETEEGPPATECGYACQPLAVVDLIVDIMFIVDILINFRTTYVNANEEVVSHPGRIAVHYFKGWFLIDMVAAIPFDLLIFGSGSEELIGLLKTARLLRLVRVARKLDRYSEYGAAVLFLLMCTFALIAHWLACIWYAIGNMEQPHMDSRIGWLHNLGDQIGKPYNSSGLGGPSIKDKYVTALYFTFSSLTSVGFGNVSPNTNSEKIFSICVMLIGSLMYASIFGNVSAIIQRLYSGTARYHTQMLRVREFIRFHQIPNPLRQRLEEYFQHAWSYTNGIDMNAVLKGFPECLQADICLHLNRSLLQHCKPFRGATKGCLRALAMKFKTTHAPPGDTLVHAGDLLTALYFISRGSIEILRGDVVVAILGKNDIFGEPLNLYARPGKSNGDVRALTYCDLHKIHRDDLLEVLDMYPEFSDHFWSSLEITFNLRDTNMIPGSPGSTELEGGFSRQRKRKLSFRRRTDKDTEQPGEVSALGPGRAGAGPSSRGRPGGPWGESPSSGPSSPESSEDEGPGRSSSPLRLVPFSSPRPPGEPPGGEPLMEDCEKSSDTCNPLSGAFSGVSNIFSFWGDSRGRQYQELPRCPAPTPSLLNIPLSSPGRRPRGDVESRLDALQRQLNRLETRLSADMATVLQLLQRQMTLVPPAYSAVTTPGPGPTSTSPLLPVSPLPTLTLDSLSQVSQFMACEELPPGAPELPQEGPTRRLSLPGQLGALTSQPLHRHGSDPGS

Row | SMILES | IC50 [µM]
1 | COc1ccc2c3c1O[C@H]1[C@@H](O)C=C[C@H]4[C@@H](C2)N(C)CC[C@@]341 [CODEINE] | 302
2 | CCC(=O)C(CC(C)N(C)C)(c1ccccc1)c1ccccc1 (centres undefined) [METHADONE] | 9.77
3 | COc1cc2nc(N3CCN(C(=O)c4ccco4)CC3)nc(N)c2cc1OC [PRAZOSIN] | 1.58
4 | CC[C@H](OC(C)=O)C(C[C@H](C)N(C)C)(c1ccccc1)c1ccccc1 [LEVOMETHADYL ACETATE] | 2.19
